Usually Ki stands for the dissociation constant of the complex between target and ligand, obtained from inhibition or displacement.

Test [1] has as its target T1, B1 bradykinin receptor (Homo sapiens, UniProt P46663). Put plainly: Binding affinity to human BK1 receptor E273 mutant.
Test [2] addresses T2, B1 bradykinin receptor (Homo sapiens, UniProt P46663).
T2 sequence (P46663 whole entry): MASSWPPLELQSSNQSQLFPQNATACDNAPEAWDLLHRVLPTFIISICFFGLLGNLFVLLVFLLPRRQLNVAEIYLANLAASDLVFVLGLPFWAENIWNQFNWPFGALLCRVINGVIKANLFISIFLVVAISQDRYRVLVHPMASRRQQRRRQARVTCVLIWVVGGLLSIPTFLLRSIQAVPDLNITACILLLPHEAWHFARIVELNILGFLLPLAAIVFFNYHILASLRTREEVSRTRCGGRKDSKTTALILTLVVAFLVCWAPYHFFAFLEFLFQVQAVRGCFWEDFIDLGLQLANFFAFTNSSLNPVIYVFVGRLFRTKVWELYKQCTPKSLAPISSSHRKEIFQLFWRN
Put plainly: Binding affinity to human BK1 receptor.

Test [3] deals with T1, B1 bradykinin receptor. Put plainly: Binding affinity to human BK1 receptor D291 mutant.
Test [4] has as its target T1, B1 bradykinin receptor. Nature of the test: Binding affinity to human BK1 receptor N298 mutant.
Test [5] addresses T1, B1 bradykinin receptor. Put plainly: Binding affinity to human BK1 receptor Q295 mutant.

`O=C(C[C@@H]1C(=O)Nc2ccccc2N1S(=O)(=O)c1ccc(Cl)c(Cl)c1)NCCc1ccc(C2=NCCN2)cc1`: the Ki in test [1] was determined as 0.0078 nM; in test [2], 0.034 nM; in test [3] it was 0.049 nM; in test [4] it was 0.038 nM; in test [5], 0.89 nM.

On to `COC(=O)c1c(F)cccc1-c1ccc(CNc2ccc(C(=O)N3CCN(C4CCCC4)CC3)cn2)c(F)c1`, for which, in test [2], the Ki was 1.5 nM.

Molecule `COC(=O)c1c(F)cccc1-c1ccc(CNc2ccc(C(=O)N3CCN(C4CCC4)CC3)cn2)c(F)c1` registered a Ki in test [2] of 2.9 nM.

`COC(=O)c1c(F)cccc1-c1ccc(CNc2ccc(C(=O)N3CCN(CC4CCC4)CC3)cn2)c(F)c1` showed a Ki in test [2] of 3.4 nM.

Take `COC(=O)c1c(F)cccc1-c1ccc(CNc2ccc(C(=O)N3CCN(C(C)=O)CC3)cn2)c(F)c1`: in test [2], affinity was put at a Ki of 17 nM. Compared with the last molecule, the Ki is about 5-fold higher.

Consider `COC(=O)c1c(F)cccc1-c1ccc(CNc2ccc(C(=O)N3CCN(CC(F)F)CC3)cn2)c(F)c1`, for which the Ki in test [2] stood at 28 nM.

For the molecule `COC(=O)c1c(F)cccc1-c1ccc(CNc2ccc(C(=O)N3CCN(S(C)(=O)=O)CC3)cn2)c(F)c1`, the affinity in test [2], expressed as Ki, was 23 nM. This Ki and that of the molecule before are within 1.5-fold of each other.

Regarding `C#CCN1CCN(C(=O)c2ccc(NCc3ccc(-c4cccc(F)c4C(=O)OC)cc3F)nc2)CC1`, the inhibition constant (Ki) in test [2] was 25 nM. The Ki values of the last two molecules are within 1.5-fold of each other.

Consider `COC(=O)c1c(F)cccc1-c1ccc(CNc2ccc(C(=O)N3CCN(c4ccccn4)CC3)cn2)c(F)c1`, for which the Ki in test [1] was determined as 286 nM; in test [2], 65 nM; in test [3] it was 85 nM; in test [4] it was 726 nM; in test [5], 10000 nM.

For the molecule `COC(=O)c1c(F)cccc1-c1ccc(CNc2ccc(C(=O)N3CCN(CC4CC4)CC3)cn2)c(F)c1`, affinity in test [2] was put at a Ki of 0.85 nM.

Molecule `COC(=O)c1c(F)cccc1-c1ccc(CNc2ccc(C(=O)N3CCNCC3)cn2)c(F)c1` yielded a Ki in test [2] of 5.5 nM.

For the molecule `COC(=O)c1c(F)cccc1-c1ccc(CNc2ccc(C(=O)N3CCOCC3)cn2)c(F)c1`, the affinity in test [2] corresponds to a Ki of 80 nM.

On to `CCN1CCN(C(=O)c2ccc(NCc3ccc(-c4cccc(F)c4C(=O)OC)cc3F)nc2)CC1`, for which the affinity in test [2] corresponds to a Ki of 3.4 nM.

In turn, `CCCN1CCN(C(=O)c2ccc(NCc3ccc(-c4cccc(F)c4C(=O)OC)cc3F)nc2)CC1` had a Ki in test [2] of 1.7 nM. This Ki lies about 2-fold lower than the previous one.

In turn, `COC(=O)c1c(F)cccc1-c1ccc(CNc2ccc(C(=O)N3CCCCC3)cn2)c(F)c1` displayed a Ki in test [2] of 70 nM.

`C/C=C/CN1CCN(C(=O)c2ccc(NCc3ccc(-c4cccc(F)c4C(=O)OC)cc3F)nc2)CC1` registered a Ki in test [2] of 3.3 nM.

The molecule `COC(=O)c1c(F)cccc1-c1ccc(CNc2ccc(C(=O)N3CCN(CCC(C)C)CC3)cn2)c(F)c1` gave a Ki in test [2] of 9.5 nM.

With `COC(=O)c1c(F)cccc1-c1ccc(CNc2ccc(CN3CCOCC3)cn2)c(F)c1`, in test [2], the affinity corresponds to a Ki of 184 nM.

In test [2], `COC(=O)c1c(F)cccc1-c1ccc(CNc2ccc(C(=O)N3CCN(C)CC3)cn2)c(F)c1` came in with a Ki of 4.4 nM.

For `C=CCCN1CCN(C(=O)c2ccc(NCc3ccc(-c4cccc(F)c4C(=O)OC)cc3F)nc2)CC1`, the Ki in test [2] is 4 nM. The Ki values of the last two molecules are within 1.5-fold of each other.

As to `COC(=O)c1c(F)cccc1-c1ccc(CNc2cc(C(=O)N3CCOCC3)ccn2)c(F)c1`, the affinity in test [2], expressed as Ki, was 2100 nM.

In test [2], `COC(=O)c1c(F)cccc1-c1ccc(CNc2ccc(C(=O)N3CCN(c4ccccc4)CC3)cn2)c(F)c1` yielded a Ki of 62 nM.

In test [2], `C=CCN1CCN(C(=O)c2ccc(NCc3ccc(-c4cccc(F)c4C(=O)OC)cc3F)nc2)CC1` displayed a Ki of 8 nM.

Consider `COC(=O)c1c(F)cccc1-c1ccc(CNc2cc(C(=O)N3CCN(C)CC3)ccn2)c(F)c1`, for which the inhibition constant (Ki) in test [2] worked out at 893 nM.

In turn, `COC(=O)c1c(F)cccc1-c1ccc(CNc2ccc(CN3CCCCC3)cn2)c(F)c1` returned an inhibitory constant (Ki) in test [2] of 9.1 nM.

On to `COC(=O)c1c(Cl)cccc1-c1ccc(CNc2cc(CN3CCOCC3)ccn2)c(F)c1`, for which the inhibitory constant (Ki) in test [2] was greater than 3000 nM.

In test [2], `COC(=O)c1c(F)cccc1-c1ccc(CNc2cc(C(=O)N3CCCCC3)ccn2)c(F)c1` displayed a Ki greater than 3000 nM.

For the molecule `CCCCN1CCN(C(=O)c2ccc(NCc3ccc(-c4cccc(F)c4C(=O)OC)cc3F)nc2)CC1`, in test [2], the Ki was 1.4 nM.

Regarding `COC(=O)c1c(F)cccc1-c1ccc(CNc2nccc(C)c2NC(=O)CC#N)c(F)c1`, affinity in test [2] was put at a Ki of 0.71 nM.

`COC(=O)c1c(F)cccc1-c1ccc(CNc2ccccn2)c(F)c1` came in with a Ki in test [2] of 815 nM.

`CCC(C)N1CCN(C(=O)c2ccc(NCc3ccc(-c4cccc(F)c4C(=O)OC)cc3F)nc2)CC1` (stereo not given): in test [2], the Ki is 1.5 nM. Compared with the last molecule, the Ki is about 540-fold lower.

On to `COC(=O)c1c(Cl)cccc1-c1ccc(CNc2cc(CN3CCCCC3)ccn2)c(F)c1`, for which, in test [2], the affinity, expressed as Ki, was 611 nM.

Molecule `COC(=O)c1c(F)cccc1-c1ccc(CNc2ccc(C(=O)N3CCN(CC4CCCC4)CC3)cn2)c(F)c1` showed an inhibition constant Ki in test [2] of 1.7 nM.

Regarding `COC(=O)c1c(F)cccc1-c1ccc(CNc2ccc(C(=O)N3CCN(C(=O)C(C)(C)C)CC3)cn2)c(F)c1`, the Ki in test [2] was 213 nM.

In test [2], `COC(=O)c1c(F)cccc1-c1ccc(CNc2ccc(C(=O)N3CCN(C4CCCCC4)CC3)cn2)c(F)c1` yielded an inhibition constant Ki of 2.8 nM.

Molecule `COC(=O)c1c(F)cccc1-c1ccc(CNc2ccc(C(=O)N3CCN(CC(C)C)CC3)cn2)c(F)c1` returned a Ki in test [2] of 1.5 nM.

For the molecule `COC(=O)c1c(F)cccc1-c1ccc(CNc2ccc(C(=O)N3CCN(CCF)CC3)cn2)c(F)c1`, in test [2], the affinity, expressed as Ki, was 5.2 nM. This Ki is about 3.5-fold higher than that of the molecule before.

As for `COC(=O)c1c(F)cccc1-c1ccc(CNc2ccc(C(=O)N3CCN(CC(F)(F)F)CC3)cn2)c(F)c1`, affinity in test [2] was put at a Ki of 52 nM.

Turning to `COC(=O)c1c(F)cccc1-c1ccc(CNc2ccc(C(=O)N3CCN(C(=O)OC)CC3)cn2)c(F)c1`, affinity in test [2] was put at a Ki of 34 nM.

Consider `COC(=O)c1c(F)cccc1-c1ccc(CNc2ccc(C(=O)N3CCN(c4cccnc4)CC3)cn2)c(F)c1`, for which affinity in test [2] was put at a Ki of 3.5 nM.

On to `COC(=O)c1c(F)cccc1-c1ccc(CNc2ccc(C(=O)N3CCN(c4ccncc4)CC3)cn2)c(F)c1`, for which the Ki in test [1] was determined as 0.05 nM; in test [2], 0.045 nM; in test [3], 0.08 nM; in test [4], 0.83 nM; in test [5], 5.12 nM.

With `COC(=O)c1c(F)cccc1-c1ccc(CNc2ccc(C(=O)N3CCN(Cc4ccccc4)CC3)cn2)c(F)c1`, the affinity in test [2] corresponds to a Ki of 26 nM.

Take `COC(=O)c1c(F)cccc1-c1ccc(CNc2ccc(C(=O)N3CCN(C(C)C)CC3)cn2)c(F)c1`: the Ki in test [2] worked out at 2.2 nM.

Source of the values: ChEMBL document CHEMBL1147019, “5-Piperazinyl pyridine carboxamide bradykinin B1 antagonists” (Bioorg Med Chem Lett, 2006).
